Experimental data taken from patent US20200071316A1, “ACTIVATORS OF THE RETINOIC ACID INDUCIBLE GENE "RIG-I" PATHWAY AND METHODS OF USE THEREOF” (Kineta Immuno-Oncology LLC, priority 2018, published 2020).
Marks after values point to notes of the source that are not given here.

What was measured:
[1] = test system: IRF3 signaling pathway (IRF-inducible ISG54 promotor) in THP1-Lucia ISG cells; test: THP1-Lucia ISG reporter assay: induction of IRF3-dependent luciferase activity; type: cell-based; details: Homo sapiens, PMA-differentiated cells, 18 h after stimulation, read-out: THP1 ISG: fold increase of IRF3-dependent luciferase activity over background; for fold induction at 10 µM: 10 μM compound; for fold induction at 5 µM: 5 μM compound (**)
Description: The compounds were evaluated in the THP1-Lucia™ ISG (interferon stimulated genes) reporter assay to determine if the compounds activate the IRF3 signaling pathway. The THP1-Lucia™ cells (InvivoGen) express the secreted luciferase (Lucia) reporter gene under the control of an IRF-inducible promotor. The reporter cell line was developed from human monocytic leukemia THP-1 cells.
(§1) The promotor was comprised of five IFN-stimulated response elements (ISRE) fused to an ISG54 minimal promotor which is unresponsive to NF-kB or AP-1 pathways. […] The IRF3-deficient THP1-Lucia™ ISG IRF3 −/− reporter cell line was generated by CRISPR technology from the parent THP1-Lucia™ ISG reporter cell line.
(§2) 5 THP1-Lucia™ ISG cells and IRF3-deficient THP1-Lucia™ ISG IRF3 −/− cells were differentiated with PMA (100 ng/ml) and stimulated with compounds at the indicated concentrations (5 to 20 μM), positive control, or not treated (background). Luciferase secretion was quantified using the QUANTI-Luc luciferase assay system (InvivoGen) 18 h after stimulation. Data are shown as fold increase luciferase activity over background in Table 7 and represent the IRF3-dependent ISG54 promotor activity by the THP1-Lucia™ ISG cells in response to compounds. […] The fold increase of compounds (10 μM, *20 μM, **5 μM) induced IRF3 dependent luciferase activity is indicated as follows: “−” indicates less than 2.4 fold increase; “+” indicates a 2.4-4.9 fold increase; “++” indicates a 5-9.9 fold increase; “+++” indicates a 10-19 fold increase; “++++” indicates a 20-39 fold increase; “+++++” indicates greater than or equal to 40 fold increase.

[2] = test system: THP1-Lucia ISG IRF3 −/− cells; test: IRF3-deficient THP1-Lucia ISG IRF3 −/− reporter assay (counter-screen); type: cell-based; details: Homo sapiens, 18 h after stimulation, read-out: THP1 ISG IRF3 −/−: fold increase of luciferase activity over background; for fold induction at 10 µM: 10 μM compound; for fold induction at 5 µM: 5 μM compound (**)
Description: as §1, §2

[3] = test system: CXCL10 secretion by CT26 cells; test: RIG-I dependent CXCL10 secretion by CT26 colon carcinoma cells (ELISA); type: cell-based, murine; details: 24 h
Description: (§3) The CT26 murine colon carcinoma cell line (ATCC) was used to evaluate the induction of CXCL10 secretion. CXCL10 is an important chemokine in tumor immune biology that recruits tumor-specific T cells to the tumor. To confirm that compound-mediated CXCL10 production was RIG-I specific, RIG-I deficient CT2-RIG-1−/− cells were generated by Kineta using CRISPR technology.
(§4) CT26 cells were seeded at a density of 1×10^4 cells per well on a 96-well tissue culture plate in 100 μL of cell culture and cells were incubated at 37° C. and 5% CO2 for 24 hr. Next, CT26 cells were treated with compounds at the indicated concentrations. CXCL10 was quantified by ELISA from supernatants taken 24 h after compound stimulation by use of the CXCL10 DuoSet ELISA kit (Cat # DY466, R&D, Minneapolis, Minn., USA) according to the manufacturer's instructions.
(§5) CXCL10 secretion by CT26 cells in response to compounds (in an amount of 5 to 20 μM) of the present disclosure is shown in Table 8. The compound-induced CXCL10 production was RIG-I dependent, since none of the compounds mediated CXCL10 secretion in RIG-I deficient CT26 RIG-1−/− cells. The compounds (10 μM, *20 μM, **5 μM) are indicated in the table as follows: “−” indicates less than 100 pg/mL; “+” indicates 100-199 pg/mL; “++” indicates 200-399 pg/mL; “+++” indicates 400-799 pg/mL; “++++” indicates 800 to 1599 pg/mL; “+++++” indicates greater than or equal to 1600 pg/ml.

[4] = test system: RIG-I deficient CT26 RIG-1−/− cells; test: CXCL10 secretion in RIG-I deficient CT26 RIG-1−/− cells (ELISA); type: cell-based, murine; details: 24 h
Description: as §3, §4, §5

| Structure (SMILES) | fold induction at 10 µM [1] | fold induction at 10 µM [2] | CXCL10 secretion by CT26 cells ([3]; 10 μM compound) | CXCL10 secretion by CT26 RIG-I −/− cells ([4]; 10 μM compound) | CXCL10 secretion by CT26 cells ([3]; 5 μM compound (**)) | CXCL10 secretion by CT26 RIG-I −/− cells ([4]; 5 μM compound (**)) | fold induction at 5 µM [1] | fold induction at 5 µM [2] |
| --- | --- | --- | --- | --- | --- | --- | --- | --- |
| O=C(Nc1nc2ccc(S(=O)(=O)N3CCCC3)cc2s1)c1cc2ccsc2cc1OCCCCN1CCOCC1 [Example 42, 6-[4-(morpholin-4-yl)butoxy]-N-[6-(pyrrolidine-1-sulfonyl)-1,3-benzothiazol-2-yl]-1-benzothiophene-5-carboxamide] | 5 to 9.9 | < 2.4 | ++++ (“++++” indicates 800 to 1599 pg/mL) | − (“−” indicates less than 100 pg/mL) | – | – | – | – |
| CN(C)S(=O)(=O)c1ccc2nc(NC(=O)c3cc4ccccc4cc3OCCN3CCOCC3)sc2c1 [Example 30, N-[6-(dimethylsulfamoyl)-1,3-benzothiazol-2-yl]-3-[2-(morpholin-4-yl)ethoxy]naphthalene-2-carboxamide] | 10 to 19 | < 2.4 | +++ (“+++” indicates 400-799 pg/mL) | − (“−” indicates less than 100 pg/mL) | – | – | – | – |
| O=C(Nc1nc2ccc(-c3nc4ccccc4[nH]3)cc2s1)c1ccc2ccccc2c1 [Example 10, N-[6-(1H-1,3-benzodiazol-2-yl)-1,3-benzothiazol-2-yl]naphthalene-2-carboxamide] | 5 to 9.9 | < 2.4 | +++ (“+++” indicates 400-799 pg/mL) | − (“−” indicates less than 100 pg/mL) | – | – | – | – |
| O=C(Nc1ccc2nc(NC(=O)c3ccc4ccccc4c3)sc2c1)c1ccccc1 [Example 6, N-(6-benzamido-1,3-benzothiazol-2-yl)naphthalene-2-carboxamide] | 20 to 39 | < 2.4 | ++ (“++” indicates 200-399 pg/mL) | − (“−” indicates less than 100 pg/mL) | – | – | – | – |
| O=C(Nc1nc2cccc(NC(=S)Nc3ccccc3)c2s1)c1cc2ccccc2cc1OCCCCN1CCOCC1 [Example 33, 3-[4-(morpholin-4-yl)butoxy]-N-{7-[(phenylcarbamothioyl)amino]-1,3-benzothiazol-2-yl}naphthalene-2-carboxamide] | 2.4 to 4.9 | < 2.4 | – | – | ++** (“++” indicates 200-399 pg/mL) | −** (“−” indicates less than 100 pg/mL) | – | – |
| O=C(Nc1nc2ccc(S(=O)(=O)N3CCC3)cc2s1)c1cc2ccsc2cc1OCCN1CCOCC1 [Example 62, N-[6-(azetidine-1-sulfonyl)-1,3-benzothiazol-2-yl]-6-[2-(morpholin-4-yl)ethoxy]-1-benzothiophene-5-carboxamide] | 20 to 39 | < 2.4 | ++++ (“++++” indicates 800 to 1599 pg/mL) | − (“−” indicates less than 100 pg/mL) | – | – | – | – |
| O=C(Nc1nc2ccc(NC(=O)C3CCCCC3)cc2s1)c1cc2ccccc2cc1OCCCCN1CCOCC1 [Example 22, N-(6-cyclohexaneamido-1,3-benzothiazol-2-yl)-3-[4-(morpholin-4-yl)butoxy]naphthalene-2-carboxamide] | – | – | – | – | +** (“+” indicates 100-199 pg/mL) | −** (“−” indicates less than 100 pg/mL) | 2.4 to 4.9 | < 2.4 |
| COC(=O)c1ccc2nc(NC(=O)c3cc4ccccc4cc3OCCN3CCOCC3)sc2c1 [Example 69, methyl 2-{3-[2-(morpholin-4-yl)ethoxy]naphthalene-2-amido}-1,3-benzothiazole-6-carboxylate] | – | – | – | – | ++** (“++” indicates 200-399 pg/mL) | −** (“−” indicates less than 100 pg/mL) | 5 to 9.9 | < 2.4 |
| O=C(Nc1nc2ccc(S(=O)(=O)N3CCC3)cc2s1)c1ccc(-c2ccccc2)cc1 [Example 50, N-[6-(azetidine-1-sulfonyl)-1,3-benzothiazol-2-yl]-[1,1′-biphenyl]-4-carboxamide] | 5 to 9.9 | < 2.4 | +++++ (“+++++” indicates greater than or equal to 1600 pg/ml) | − (“−” indicates less than 100 pg/mL) | – | – | – | – |
| O=C(Nc1cc2ccc(S(=O)(=O)N3CCCC3)cc2s1)c1cc2ccsc2cc1OCCN1CCOCC1 [Example 76, 6-[2-(morpholin-4-yl)ethoxy]-N-[6-(pyrrolidine-1-sulfonyl)-1-benzothiophen-2-yl]-1-benzothiophene-5-carboxamide] | 20 to 39 | < 2.4 | ++++ (“++++” indicates 800 to 1599 pg/mL) | − (“−” indicates less than 100 pg/mL) | – | – | – | – |
| O=C(Nc1nc2ccc(S(=O)(=O)N3CCCC3)cc2s1)c1ccc(-c2ccccc2)cc1OCCN1CCOCC1 [Example 47, 3-[2-(morpholin-4-yl)ethoxy]-N-[6-(pyrrolidine-1-sulfonyl)-1,3-benzothiazol-2-yl]-[1,1′-biphenyl]-4-carboxamide] | ≥ 40 | < 2.4 | +++ (“+++” indicates 400-799 pg/mL) | − (“−” indicates less than 100 pg/mL) | – | – | – | – |
| O=C(Nc1nc2ccc(S(=O)(=O)N3CCOCC3)cc2s1)c1ccc2ccccc2c1 [Example 3, N-[6-(morpholine-4-sulfonyl)-1,3-benzothiazol-2-yl]naphthalene-2-carboxamide] | 10 to 19 | < 2.4 | +++ (“+++” indicates 400-799 pg/mL) | − (“−” indicates less than 100 pg/mL) | – | – | – | – |
| NS(=O)(=O)c1ccc2nc(NC(=O)c3cc4ccccc4cc3OCCCCN3CCOCC3)sc2c1 [Example 32, 3-[4-(morpholin-4-yl)butoxy]-N-(6-sulfamoyl-1,3-benzothiazol-2-yl)naphthalene-2-carboxamide] | – | – | ++++ (“++++” indicates 800 to 1599 pg/mL) | − (“−” indicates less than 100 pg/mL) | – | – | 5 to 9.9 | < 2.4 |
| CS(=O)(=O)c1ccc2nc(NC(=O)c3ccc4ccccc4c3)sc2c1 [Example 1, N-(6-methanesulfonyl-1,3-benzothiazol-2-yl)naphthalene-2-carboxamide] | 10 to 19 | < 2.4 | ++++ (“++++” indicates 800 to 1599 pg/mL) | − (“−” indicates less than 100 pg/mL) | – | – | – | – |
| O=C(Nc1nc2ccc(S(=O)(=O)N3CCC3)cc2s1)c1ccc(-c2ccccc2)cc1OCCN1CCOCC1 [Example 60, N-[6-(azetidine-1-sulfonyl)-1,3-benzothiazol-2-yl]-3-[2-(morpholin-4-yl)ethoxy]-[1,1′-biphenyl]-4-carboxamide] | 20 to 39 | < 2.4 | ++++ (“++++” indicates 800 to 1599 pg/mL) | − (“−” indicates less than 100 pg/mL) | – | – | – | – |
| N#Cc1ccc2nc(NC(=O)c3cc4ccccc4cc3OCCN3CCOCC3)sc2c1 [Example 24, N-(6-cyano-1,3-benzothiazol-2-yl)-3-[2-(morpholin-4-yl)ethoxy]naphthalene-2-carboxamide] | 5 to 9.9 | < 2.4 | − (“−” indicates less than 100 pg/mL) | − (“−” indicates less than 100 pg/mL) | – | – | – | – |
